The target of series [1] is T1, Probable ATP-dependent RNA helicase DHX40 (Homo sapiens, UniProt Q8IX18).
T1 sequence (Q8IX18 whole entry): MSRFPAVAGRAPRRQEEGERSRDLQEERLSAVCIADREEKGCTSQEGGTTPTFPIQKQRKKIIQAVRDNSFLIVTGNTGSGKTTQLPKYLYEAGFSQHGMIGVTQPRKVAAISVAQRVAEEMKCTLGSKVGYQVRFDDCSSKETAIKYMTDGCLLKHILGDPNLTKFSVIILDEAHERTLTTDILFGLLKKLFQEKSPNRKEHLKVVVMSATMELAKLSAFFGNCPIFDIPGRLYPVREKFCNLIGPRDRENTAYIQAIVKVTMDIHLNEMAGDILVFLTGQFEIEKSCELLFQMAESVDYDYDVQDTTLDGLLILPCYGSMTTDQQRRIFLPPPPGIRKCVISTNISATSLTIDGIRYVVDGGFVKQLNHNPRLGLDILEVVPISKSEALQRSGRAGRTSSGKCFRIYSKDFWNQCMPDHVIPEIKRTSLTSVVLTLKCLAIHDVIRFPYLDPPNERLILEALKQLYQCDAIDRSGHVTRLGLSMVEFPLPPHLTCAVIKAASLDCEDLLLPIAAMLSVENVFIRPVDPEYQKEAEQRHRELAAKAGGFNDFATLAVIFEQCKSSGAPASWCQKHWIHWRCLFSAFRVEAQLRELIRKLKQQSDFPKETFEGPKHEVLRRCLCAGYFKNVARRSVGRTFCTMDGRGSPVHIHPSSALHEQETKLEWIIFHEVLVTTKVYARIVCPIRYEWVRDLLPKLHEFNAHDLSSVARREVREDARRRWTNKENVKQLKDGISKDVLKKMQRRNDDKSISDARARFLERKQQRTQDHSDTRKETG
Description: Inhibition of N-terminal thioredoxin-tagged human recombinant DHX40 transformed in Escherichia coli BL21(DE3)pLysS cells.

Series [2] is described as follows: Microsomal stability in human liver microsome assessed as intrinsic clearance. Particulars: liver microsomes, read-out: CLH. It counts as ADME.
A further series concerns the target T2, Nucleolar RNA helicase 2 (Homo sapiens, UniProt Q9NR30).
T2 sequence (Q9NR30 whole entry): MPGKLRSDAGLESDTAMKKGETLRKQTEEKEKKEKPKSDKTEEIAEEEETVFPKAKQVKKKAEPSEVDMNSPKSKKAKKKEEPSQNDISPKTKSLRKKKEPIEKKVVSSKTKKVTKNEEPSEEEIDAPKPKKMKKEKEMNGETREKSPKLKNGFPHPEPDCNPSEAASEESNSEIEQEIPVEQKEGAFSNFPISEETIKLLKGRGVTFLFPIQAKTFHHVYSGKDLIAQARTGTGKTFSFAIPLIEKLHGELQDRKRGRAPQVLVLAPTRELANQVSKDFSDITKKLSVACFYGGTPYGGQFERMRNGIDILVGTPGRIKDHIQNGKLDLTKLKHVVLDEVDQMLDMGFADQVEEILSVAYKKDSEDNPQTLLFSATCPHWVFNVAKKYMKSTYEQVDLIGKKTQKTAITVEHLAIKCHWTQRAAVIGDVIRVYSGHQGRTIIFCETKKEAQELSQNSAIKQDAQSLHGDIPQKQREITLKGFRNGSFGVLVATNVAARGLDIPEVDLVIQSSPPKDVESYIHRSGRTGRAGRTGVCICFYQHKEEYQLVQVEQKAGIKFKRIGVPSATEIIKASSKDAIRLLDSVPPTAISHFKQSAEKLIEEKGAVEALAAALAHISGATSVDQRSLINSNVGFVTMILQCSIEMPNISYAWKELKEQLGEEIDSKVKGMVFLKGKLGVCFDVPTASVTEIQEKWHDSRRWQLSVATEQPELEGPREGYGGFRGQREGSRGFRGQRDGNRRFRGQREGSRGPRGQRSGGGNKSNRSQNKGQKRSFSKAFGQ
Put plainly: Inhibition of N-terminal thioredoxin-tagged human recombinant DDX21 transformed in Escherichia coli BL21(DE3)pLysS cells.

The target of series [3] is T3, Probable ATP-dependent RNA helicase DDX59 (Homo sapiens, UniProt Q5T1V6).
T3 sequence (Q5T1V6 whole entry): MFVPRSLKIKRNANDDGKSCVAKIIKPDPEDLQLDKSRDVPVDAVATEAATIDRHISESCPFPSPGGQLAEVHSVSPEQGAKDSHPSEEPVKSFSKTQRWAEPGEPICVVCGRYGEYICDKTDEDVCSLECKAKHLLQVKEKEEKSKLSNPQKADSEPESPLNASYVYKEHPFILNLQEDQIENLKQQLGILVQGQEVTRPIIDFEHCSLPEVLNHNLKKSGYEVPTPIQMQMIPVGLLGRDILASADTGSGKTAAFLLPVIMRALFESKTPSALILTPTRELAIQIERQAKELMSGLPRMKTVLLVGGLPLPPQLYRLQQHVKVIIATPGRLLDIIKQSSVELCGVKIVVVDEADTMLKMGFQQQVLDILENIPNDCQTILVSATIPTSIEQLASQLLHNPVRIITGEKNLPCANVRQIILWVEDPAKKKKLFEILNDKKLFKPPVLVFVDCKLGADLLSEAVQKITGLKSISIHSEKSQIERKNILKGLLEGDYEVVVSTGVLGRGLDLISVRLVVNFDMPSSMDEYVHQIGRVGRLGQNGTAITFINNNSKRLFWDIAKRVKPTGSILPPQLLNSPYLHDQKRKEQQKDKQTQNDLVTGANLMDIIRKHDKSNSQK
Description: Inhibition of C-terminal 6xHis-tagged human recombinant DDX59 transformed in Escherichia coli BL21(DE3)pLysS cells.

Regarding `COc1ccc2nc(NC(=O)c3cc(C)n(-c4sc(C)cc4C#N)c3C)[nH]c2c1`, the IC50 (in series [1]; at Nucleolar RNA helicase 2; in series [3]) was > 100 µM each time. Further, the CLint scaled in series [2] was found to be 22.4 mL/min/kg.

(Values after ChEMBL document CHEMBL5390231, “Development of small molecule inhibitors targeting RNA helicase DHX33 as anti-cancer agents” (Bioorg Med Chem Lett, 2023).)
